Reference: PMC7873251, “CXCR7 ameliorates myocardial infarction as a β-arrestin-biased receptor” (Scientific Reports, 2021)
“Also recorded” adds a separate entry of the source.

What was measured:
[1] = target: T1, human CXCR7 (Homo sapiens, UniProt P25106); assay: β-arrestin recruitment assay of CXCR7 (luminescence, HEK293); format: cell-based; settings: HEK293 cells transfected with human β-arrestin-2-ω and human CXCR7-α, 37 °C for 90 min, then Gal-Screen 25 °C 90 min, n = 3 independent, read-out: EC50 for coupling of CXCR7 with β-arrestin (β-arrestin recruitment)
T1 construct: expressed in transfected cells; host or cells: HEK293 cells (ATCC CRL-11268)
Procedure: HEK293 cells (ATCC CRL-11268) were used for the β-arrestin recruitment assay, as previously described[52]. In brief, HEK293 cells were transfected with human β-arrestin-2-ω and human CXCR7-α. […] Luminescence was measured in an ARVO X3 plate reader (PerkinElmer, Waltham, MA, USA).

[2] = test system: ERK; assay: ERK phosphorylation (pERK/tERK immunoblot) in neonatal rat cardiomyocytes (NRCMs); format: cell-based, rat (Wistar); settings: 30-min pretreatment with barbadin (50 M [sic]), then 10 min TC14012 (printed 3 M), n = 4
Procedure: NRCMs and neonatal rat fibroblasts were prepared from 1-day-old Wistar rats (Takasugi Experimental Animal Supply Co., Saitama, Japan), as previously described. Briefly, cardiac cells were dispersed by digestion with collagenase type II (Worthington Biochemical, Lakewood, NJ, USA) and incubated at 37 °C for 80 min to divide the supernatant cells, which are rich in cardiomyocytes, and the attached cells, which are rich in cardiac fibroblasts. The supernatant NRCMs were cultured on gelatin-coated dishes at 37 °C in Dulbecco’s modified Eagle’s medium (DMEM; Nacalai Tesque, Kyoto, Japan) supplemented with 10% fetal calf serum for 36 h and confirmed on the basis of beating activity. After 12 h of starvation, the NRCMs were treated with TC14012 (Tocris Bioscience, Bristol, UK). Attached cells rich in cardiac fibroblasts were subcultured three times to increase their purity. We added vehicle (DMSO) or barbadin (MedChemExpress, New Jersey, USA) 30 min before stimulation.
Western blotting was performed as previously described. […] Signals were detected with the Pierce ECL Prime system (GE Healthcare) in a LAS4000 instrument (GE Healthcare). Band densities were analyzed using the ImageJ software (National Institutes of Health, Bethesda, MD, USA).

[3] = test system: adrenergic receptors; settings: cited from earlier work
Description: (§1) There are many seven-transmembrane receptors (7TMRs), such as adrenergic receptors and angiotensin II receptors, in the heart, and they play various critical roles in cardiac function and morphology[1],[2]. […] The roles of ACKRs are largely unknown, and only ACKR3, also known as CXC chemokine receptor 7 (CXCR7), has be ...

[4] = test system: heart failure patients; settings: cited from earlier work
Description: as §1

[5] = test system: CC chemokine receptor 2-positive macrophages; settings: pressure-overload heart failure model; cited from earlier work
Description: (§2) Recently, the importance of chemokines and their receptors in cardiovascular diseases has been pointed out.

[6] = test system: ERK (via rat CXCR7 expression plasmid); assay: ERK phosphorylation (pERK/tERK immunoblot) in CXCR7-transfected HEK293 cells; format: cell-based, HEK293 cells (human embryonic kidney); settings: CXCL12 100 nM
Procedure: HEK293 cells (ATCC CRL-11268) were used for the β-arrestin recruitment assay, as previously described. In brief, HEK293 cells were transfected with human β-arrestin-2-ω and human CXCR7-α. […] Luminescence was measured in an ARVO X3 plate reader (PerkinElmer, Waltham, MA, USA). In addition, HEK293 cells were transfected with a rat CXCR7 expression plasmid using Lipofectamine 3000 (Thermo Fisher Scientific). The CXCR7 expression plasmid was synthesized by amplifying a rat Cxcr7 mRNA sequence (RefSeq: NM_053352.1) with a FLAG tag (forward primer: 5′-[…]-3′, reverse primer: 5′-[…]-3′) from cDNA prepared from total RNA isolated from neonatal rat heart and inserting it in pShuttle-CMV (#16403, Addgene, Watertown, MA, USA). The cells were cultured for 36 h.
Western blotting was performed as previously described. Tissues and cells were homogenized in ice-cold RIPA buffer containing protease inhibitor (cOmplete Protease Inhibitor Cocktail, Merck) and phosphatase inhibitor (PhosSTOP, Sigma). Supernatants were collected after centrifugation and mixed with an equal amount of loading buffer (125 mM Tris–HCl pH 6.8, 30% glycerol, 10% SDS, and 0.6 M DTT). […] Signals were detected with the Pierce ECL Prime system (GE Healthcare) in a LAS4000 instrument (GE Healthcare). Band densities were analyzed using the ImageJ software (National Institutes of Health, Bethesda, MD, USA).

[7] = test system: CXCR4; settings: via CXCR4; cited from earlier work
Description: as §2

[8] = test system: cardiac hypertrophy; settings: cited from earlier work
Description: There are numerous reports on biased agonists. Biased agonism occurs when two ligands share one receptor, but transmit different signals. […] However, there are a few natural β-arrestin-biased agonists and very few 7TMRs that activate intracellular signaling only through β-arr ...

[9] = test system: type 1 angiotensin II receptor; settings: cited from earlier work
Description: There are many seven-transmembrane receptors (7TMRs), such as adrenergic receptors and angiotensin II receptors, in the heart, and they play various critical roles in cardiac function and morphology[1],[2]. […] The roles of ACKRs are largely unknown, and only ACKR3, also known as CXC chemokine receptor 7 (CXCR7), has be ... || There are numerous reports on biased agonists. Biased agonism occurs when two ligands share one receptor, but transmit different signals. […] However, there are a few natural β-arrestin-biased agonists and very few 7TMRs that activate intracellular signaling only through β-arr ...

[10] = test system: CC chemokine receptor-like 2 (CCRL2); settings: cited from earlier work
Description: In this study, we focused on CXCR7 because of its abundant expression in the heart and its unique character as a 7TMR. […] As a 7TMR, the β1-adrenergic receptor plays critical roles in the heart[21],[22]; however, its expression level was tenfold lower than that of Cxcr7.

T1 sequence (P25106 whole entry): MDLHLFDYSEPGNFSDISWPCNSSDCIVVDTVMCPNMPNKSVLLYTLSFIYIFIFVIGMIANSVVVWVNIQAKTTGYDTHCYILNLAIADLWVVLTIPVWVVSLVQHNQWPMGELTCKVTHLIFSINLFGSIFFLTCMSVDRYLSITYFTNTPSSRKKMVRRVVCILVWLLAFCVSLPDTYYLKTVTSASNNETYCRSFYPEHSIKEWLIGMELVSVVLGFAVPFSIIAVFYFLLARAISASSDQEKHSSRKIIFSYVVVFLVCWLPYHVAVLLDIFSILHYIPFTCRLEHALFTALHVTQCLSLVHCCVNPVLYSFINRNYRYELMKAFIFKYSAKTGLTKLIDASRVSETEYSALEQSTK
T1 sequence (P32121 whole entry partner): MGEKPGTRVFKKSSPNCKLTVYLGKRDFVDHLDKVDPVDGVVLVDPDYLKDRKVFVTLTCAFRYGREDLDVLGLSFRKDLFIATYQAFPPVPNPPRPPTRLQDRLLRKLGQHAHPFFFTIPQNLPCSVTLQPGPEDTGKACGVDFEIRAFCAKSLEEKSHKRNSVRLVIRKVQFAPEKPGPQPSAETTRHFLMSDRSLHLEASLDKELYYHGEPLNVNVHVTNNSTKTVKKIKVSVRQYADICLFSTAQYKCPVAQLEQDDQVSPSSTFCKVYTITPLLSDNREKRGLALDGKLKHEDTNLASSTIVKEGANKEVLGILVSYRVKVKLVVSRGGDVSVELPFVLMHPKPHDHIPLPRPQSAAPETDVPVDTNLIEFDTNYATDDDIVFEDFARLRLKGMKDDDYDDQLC

N=C(N)NCCC[C@H](NC(=O)[C@@H]1CSSC[C@H](NC(=O)[C@H](Cc2ccc3ccccc3c2)NC(=O)[C@H](CCCNC(=N)N)NC(=O)[C@@H](N)CCCNC(=N)N)C(=O)N[C@@H](Cc2ccc(O)cc2)C(=O)N[C@@H](CCCNC(N)=O)C(=O)N[C@@H](CCCCN)C(=O)N[C@H](CCCNC(N)=O)C(=O)N2CCC[C@H]2C(=O)N[C@@H](Cc2ccc(O)cc2)C(=O)N[C@@H](CCCNC(=N)N)C(=O)N[C@@H](CCCNC(N)=O)C(=O)N1)C(N)=O [TC14012]
EC50 [1]: 47.4 nM

Nn1cnc2scc(-c3ccc(Cc4ccccc4)cc3)c2c1=O [barbadin]
inhibition of TC14012-induced ERK activation [2]: abolished TC14012-induced ERK activation; also recorded: completely suppressed

COc1ccccc1OCCNCC(O)COc1cccc2[nH]c3ccccc3c12 (centres unmarked) [carvedilol]
adrenergic receptor blockade and β-arrestin signaling [3]: not only blocks adrenergic receptors, but also activates cardioprotective signals, including ERK, through β-arrestin
effectiveness in heart failure patients [4]: very effective for the treatment of heart failure patients

CC chemokine ligand 2: chemokine that induced accumulation of CC chemokine receptor 2-positive macrophages
accumulation of CCR2-positive macrophages [5]: induced the accumulation of CC chemokine receptor 2-positive macrophages

CXCL12: a natural ligand of CXCR4 and CXCR7
time of peak ERK activity after stimulation ([6]; HEK293 cells with CXCR7 expression plasmid, n = 4): 5 min
ERK activation (pERK/tERK) ([6]; HEK293 cells, rat CXCR7 expression plasmid (various amounts), n = 3): activated ERK in a CXCR7 expression plasmid-dose-dependent manner
protection of the heart from hypoxia [7]: protects the heart from hypoxia

angiotensin-(1-7): a metabolite of angiotensin II
cardiac hypertrophy [8]: attenuates cardiac hypertrophy
G protein versus β-arrestin activation compared with angiotensin II [9]: binds to type 1 angiotensin II receptor, but fails to activate G proteins, and selectively promotes β-arrestin activation compared with angiotensin II

chemerin: ligand of CCRL2
binding to CCRL2 [10]: it does not bind to chemokines, but to chemerin
